Values joined by “and” are separate entries in the source; they are usually repeats but may differ in a detail not shown here. Identical values can stand only once. Like-named read-outs stand apart in the source and are kept apart here.
What was measured:
Na+ channel (site 2) = type: binding; conditions: 10 µM
A3 (h) = biological target: T1, A3 (h) (Homo sapiens, UniProt P0DMS8); experiment: CEREP panel; type: binding
T1 construct: CEREP
T1 sequence (P0DMS8 1-318): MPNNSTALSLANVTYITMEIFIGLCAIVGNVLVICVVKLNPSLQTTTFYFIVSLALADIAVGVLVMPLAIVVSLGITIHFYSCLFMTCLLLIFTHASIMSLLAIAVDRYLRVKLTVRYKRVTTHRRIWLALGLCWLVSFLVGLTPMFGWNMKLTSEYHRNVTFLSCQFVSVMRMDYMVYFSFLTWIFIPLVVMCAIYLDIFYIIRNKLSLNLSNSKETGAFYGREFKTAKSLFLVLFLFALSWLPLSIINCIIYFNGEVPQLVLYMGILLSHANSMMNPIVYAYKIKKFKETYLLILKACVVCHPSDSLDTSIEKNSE

NK3 (h) = biological target: T2, NK3 (h) (Homo sapiens, UniProt P29371); experiment: CEREP panel; type: binding
T2 construct: CEREP (contract assay)
T2 sequence (P29371 1-465): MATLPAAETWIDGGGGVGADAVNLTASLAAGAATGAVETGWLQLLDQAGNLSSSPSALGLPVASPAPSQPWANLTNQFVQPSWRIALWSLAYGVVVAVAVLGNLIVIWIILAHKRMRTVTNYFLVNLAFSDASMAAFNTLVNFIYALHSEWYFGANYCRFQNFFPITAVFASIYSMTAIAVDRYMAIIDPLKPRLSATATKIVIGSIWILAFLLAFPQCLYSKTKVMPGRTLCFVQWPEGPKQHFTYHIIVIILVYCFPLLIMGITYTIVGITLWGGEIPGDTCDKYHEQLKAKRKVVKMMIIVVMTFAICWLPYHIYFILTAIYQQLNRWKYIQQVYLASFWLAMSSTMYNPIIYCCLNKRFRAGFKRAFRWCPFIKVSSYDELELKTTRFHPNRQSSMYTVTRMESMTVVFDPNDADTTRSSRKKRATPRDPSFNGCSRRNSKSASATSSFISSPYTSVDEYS

hCB2R = hCB2R (Homo sapiens, UniProt P34972); parameters: expressed in transfected cells; host or cells: Flp-In-293 (Invitrogen #R750-07), pcDNA5/FRT; conditions: hCB2R; for ΔLogR GIRK / ΔLogR GTPγS / ΔLogR cAMP / ΔLogR pERK / ΔLogR β-AR: reference CP55940; for RE GIRK / RE GTPγS / RE cAMP / RE pERK / RE β-AR: relative effectiveness
[1] = tested on: Ca2+ channel (verapamil site); experiment: CEREP panel; type: binding; conditions: 10 µM
[2] = tested on: AEA cellular uptake in HMC-1 cells; experiment: cells; type: cell-based, human
P2Y = experiment: CEREP panel; type: binding; conditions: 10 µM
hCB1R [3] = biological target: T3, hCB1R (Homo sapiens, UniProt P21554); experiment: biochemical; type: binding
T3 construct: host or cells: CHO

alpha 2A (h) = biological target: T4, alpha 2A (h) (Homo sapiens, UniProt P08913); experiment: CEREP panel; type: binding
T4 construct: CEREP
T4 sequence (P08913 1-465): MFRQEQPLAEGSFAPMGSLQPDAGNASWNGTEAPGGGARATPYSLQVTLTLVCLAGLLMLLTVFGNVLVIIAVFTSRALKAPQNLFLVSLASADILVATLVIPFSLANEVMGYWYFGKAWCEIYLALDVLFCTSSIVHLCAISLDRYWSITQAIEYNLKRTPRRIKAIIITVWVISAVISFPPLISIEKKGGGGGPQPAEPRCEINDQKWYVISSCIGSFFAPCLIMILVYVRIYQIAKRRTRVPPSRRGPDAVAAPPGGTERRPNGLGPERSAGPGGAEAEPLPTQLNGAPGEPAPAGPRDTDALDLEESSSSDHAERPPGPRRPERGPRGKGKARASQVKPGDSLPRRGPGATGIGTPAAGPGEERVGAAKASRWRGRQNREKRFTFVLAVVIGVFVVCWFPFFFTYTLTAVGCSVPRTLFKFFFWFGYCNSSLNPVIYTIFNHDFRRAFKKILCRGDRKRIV

hCB1R [4] = biological target: T3, hCB1R; experiment: cell-based; type: cell-based
physchem = conditions: pH 6.5, aqueous buffer, thermodynamic from solid

T3 sequence (P21554 whole entry): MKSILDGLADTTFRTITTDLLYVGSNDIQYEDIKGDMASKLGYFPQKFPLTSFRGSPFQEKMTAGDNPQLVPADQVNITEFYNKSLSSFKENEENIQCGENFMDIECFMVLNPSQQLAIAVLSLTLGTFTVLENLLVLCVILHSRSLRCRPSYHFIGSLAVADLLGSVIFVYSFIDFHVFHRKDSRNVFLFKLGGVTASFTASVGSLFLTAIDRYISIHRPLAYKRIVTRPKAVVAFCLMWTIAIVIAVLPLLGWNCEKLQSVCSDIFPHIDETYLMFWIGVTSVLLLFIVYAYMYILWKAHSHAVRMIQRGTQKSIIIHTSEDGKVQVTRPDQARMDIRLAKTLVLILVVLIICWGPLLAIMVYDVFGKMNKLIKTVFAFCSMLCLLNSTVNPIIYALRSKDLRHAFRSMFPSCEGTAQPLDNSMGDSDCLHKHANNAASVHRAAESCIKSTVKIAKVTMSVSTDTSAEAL
hCB2R, sequence (P34972 whole entry): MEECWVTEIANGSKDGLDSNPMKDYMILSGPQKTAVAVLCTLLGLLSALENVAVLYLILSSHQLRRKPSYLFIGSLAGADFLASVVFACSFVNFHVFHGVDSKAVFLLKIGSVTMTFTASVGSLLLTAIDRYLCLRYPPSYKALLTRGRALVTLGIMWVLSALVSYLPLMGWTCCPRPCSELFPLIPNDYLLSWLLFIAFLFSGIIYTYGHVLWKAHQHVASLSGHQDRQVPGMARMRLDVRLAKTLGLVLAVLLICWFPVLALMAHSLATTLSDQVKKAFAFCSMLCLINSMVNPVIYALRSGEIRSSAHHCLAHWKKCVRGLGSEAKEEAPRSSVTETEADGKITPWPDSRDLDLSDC

## CCCCCCC(C)(C)c1cc(OC)c([C@@H]2C=C(CO)[C@@H]3C[C@H]2C3(C)C)c(OC)c1 [HU308]
Na+ channel (site 2)
  % inhibition Na+ channel (site 2): 30%
A3 (h); read-out: % inhibition A3 (h)
  inhibition at 10 µM: -1%
NK3 (h); read-out: % inhibition NK3 (h)
  inhibition at 10 µM: 13%
hCB2R
  GIRK-GTPγS bias factor (BF): 0.56
  GIRK-GTPγS ΔΔlogR: -0.26
  GIRK-cAMP bias factor (BF): 4.33
  GIRK-cAMP ΔΔlogR: 0.64 ± 0.17
  GTPγS-cAMP bias factor (BF): 7.78
  GTPγS-cAMP ΔΔlogR: 0.89 ± 0.30
  LogR GIRK: 6.281
  LogR GTPγS: 6.95
  LogR cAMP: 8.49
  LogR pERK: 7.55
  LogR β-AR: 7.72
  pERK-GIRK bias factor (BF): 1.25
  pERK-GIRK ΔΔlogR: 0.1 ± 0.3
  pERK-GTPγS bias factor (BF): 0.70
  pERK-GTPγS ΔΔlogR: -0.16
  pERK-cAMP bias factor (BF): 5.42
  pERK-cAMP ΔΔlogR: 0.73 ± 0.27
  β-AR-GIRK bias factor (BF): 6.37
  β-AR-GIRK ΔΔlogR: 0.80 ± 0.19
  β-AR-GTPγS bias factor (BF): 3.54
  β-AR-GTPγS ΔΔlogR: 0.55 ± 0.32
  β-AR-cAMP bias factor (BF): 27.16
  β-AR-cAMP ΔΔlogR: 1.43 ± 0.16
  β-AR-pERK bias factor (BF): 5.08
  β-AR-pERK ΔΔlogR: 0.71 ± 0.29
  ΔLogR GIRK: -1.58
  ΔLogR GTPγS: -1.33
  ΔLogR cAMP: -2.22
  ΔLogR pERK: -1.48
  ΔLogR β-AR: -0.78
  RE GIRK: 0.03
  RE GTPγS: 0.05
  RE cAMP: 0.006
  RE pERK: 0.03
  RE β-AR: 0.17
[1]
  % inhibition Ca2+ channel (verapamil site): 3%
[2]; Homo sapiens, HMC1, read-out: AEA reuptake IC50 (95% CI) HMC-1 cells
  IC50: > 5 µM
P2Y
  % inhibition P2Y: 1%
hCB1R [3]
  Ki: > 10 µM
Alpha 2A (h); read-out: % inhibition alpha 2A (h)
  inhibition at 10 µM: -6%
hCB1R [4]
  EC50: > 10 µM
hCB1R [4]; read-out: Emax ± SEM β-AR recruitment hCB1R
  Emax: 5 ± 1%
physchem
  solubility kinetic: < 0.75 µg/mL and < 1.8 µM

## CCCCCCC(C)(C)c1cc(OC)c(C2=C[C@H]3CC[C@]2(CO)C3(C)C)c(OC)c1 [HU910]
Na+ channel (site 2)
  % inhibition Na+ channel (site 2): 5%
A3 (h); 10 µM
  % inhibition A3 (h): 62%
NK3 (h); 10 µM
  % inhibition NK3 (h): 24%
hCB2R
  GIRK-GTPγS bias factor (BF): 0.31
  GIRK-GTPγS ΔΔlogR: -0.51
  GIRK-cAMP bias factor (BF): 2.42
  GIRK-cAMP ΔΔlogR: 0.38 ± 0.20
  GTPγS-cAMP bias factor (BF): 7.73
  GTPγS-cAMP ΔΔlogR: 0.89 ± 0.31
  LogR GIRK: 5.90
  LogR GTPγS: 6.82
  LogR cAMP: 8.37
  LogR pERK: 6.94
  LogR β-AR: 7.72
  pERK-GIRK bias factor (BF): 0.73
  pERK-GIRK ΔΔlogR: -0.13
  pERK-GTPγS bias factor (BF): 0.23
  pERK-GTPγS ΔΔlogR: -0.64
  pERK-cAMP bias factor (BF): 1.77
  pERK-cAMP ΔΔlogR: 0.25 ± 0.28
  β-AR-GIRK bias factor (BF): 15.07
  β-AR-GIRK ΔΔlogR: 1.18 ± 0.22
  β-AR-GTPγS bias factor (BF): 4.71
  β-AR-GTPγS ΔΔlogR: 0.67 ± 0.32
  β-AR-cAMP bias factor (BF): 36.90
  β-AR-cAMP ΔΔlogR: 1.57 ± 0.15
  β-AR-pERK bias factor (BF): 20.56
  β-AR-pERK ΔΔlogR: 1.31 ± 0.29
  ΔLogR GIRK: -1.96
  ΔLogR GTPγS: -1.46
  ΔLogR cAMP: -2.35
  ΔLogR pERK: -2.1
  ΔLogR β-AR: -0.78
  RE GIRK: 0.01
  RE GTPγS: 0.03
  RE cAMP: 0.005
  RE pERK: 0.01
  RE β-AR: 0.16
[1]
  % inhibition Ca2+ channel (verapamil site): 7%
[2]; read-out: AEA reuptake IC50 (95% CI) HMC-1 cells, FAAH-deficient cells
  IC50: > 5 µM
P2Y
  % inhibition P2Y: -7%
hCB1R [3]; CHO membranes, Leiden, HU210 and SR144528 from Roche
  pKi ± SEM hCB1R: < 5
Alpha 2A (h); 10 µM
  % inhibition alpha 2A (h): 7%
hCB1R [4]
  Emax ± SEM β-AR recruitment hCB1R: -97 ± 4
  pEC50 ± SEM β-AR recruitment hCB1R: 5.31 ± 0.06

— article PMC5216056 (Nature Communications, 2017)
